Results taken from PubChem BioAssay AID1963840 (Molecular Pharmacology Branch, DTP, NCI, 2024).
pIC50: −log10 of the molar value.

System: 695427-040-R-J1-PDC complex spheroid viability
Test: Anticancer human tumor 695427-040-R-J1-PDC patient-derived colon adenocarcinoma cell line growth inhibition [POLQ]
Settings: for pIC50: curve of first compound; for viability, T/C: stronger effect = lower value
Method: Multicellular complex tumor spheroid response to Polymerase (POL) inhibitors (novobiocin, ART-558, RP6685) in combination with a variety of drugs and investigational agents in selected tumor cell lines
The POL inhibitors (novobiocin, ART-558, and RP6685) were evaluated both individually and in combination with standard of care and investigational anticancer small molecules within a complex spheroid model of solid tumors. . Complex spheroids include a stromal component modeled by human endothelial cells (HUVEC) and fibroblasts modeled by human mesenchymal stem cells (MSCs). The concentration ranges selected for each drug and investigational agent were based upon clinically achievable concentrations if the clinical Cmax of the agent was known.
Compounds. The drugs and investigational agents: novobiocin (NSC847541), ART-558 (NSC835418), RP-6685 (NSC848927), peposertib (NSC802822), ceralasertib (NSC780249), elimusertib (NSC800525), camonsertib (NSC841442), AZD-1390 (NSC803789), olaparib (NSC753686), talazoparib (NSC767125), rucaparib (NSC756644), sotorasib (NSC818433), MRTX-1133 (NSC836407), SN-38 (NSC673596), topotecan (NSC609699), epotoside (NSC141540), doxorubicin (NSC123127), gemcitabine (NSC613327), 5-fluorouracil (NSC19893), paclitaxel (NSC125973), vemurafenib (NSC761431), MSA-2 (NSC828583), SN-011 (NSC837082), adavosertib (NSC754352), prexasertib (NSC758257), carboplatin (NSC241240) and oxaliplatin (NSC266046), were obtained from the National Cancer Institute (NCI) Developmental Therapeutics Program Chemical Repository (21). The FDA-approved anticancer drug set is available from the Developmental Therapeutics Program at https://dtp.cancer.gov/organization/dscb/obtaining/. […] The stock solutions were prepared in dimethyl sulfoxide (DMSO, Sigma-Aldrich, St. Louis, MO, cat. D2650), except for the platinum compounds which were prepared in saline (Quality Biological, Gaithersburg, MD, cat. 114-055-101), at 800-fold the tested concentration and stored at -70 degrees C prior to their use. All drugs and investigational agents were tested over a range starting from a high concentration at or near the clinical Cmax and decreasing in half-log increments. If the clinical Cmax for an agent had not been determined, the highest concentration tested was 10 microM, except for SN-38, which was tested at a high concentration of 1 microM.
Cell Culture. All cells were maintained in an incubator at 37 degrees C and 5% CO2 with 95% humidity. The PDC lines were cultured according to standard operating procedures established by the NCI PDMR (https://pdmr.cancer.gov). Table 3 of the manuscript, lists the cell lines along with the number of the three cell types plated to form the mct-spheroids and media for tumor cell growth. After thawing, all PDC lines, except 997537-175-T-J1-PDC and 415267-285-R-J2-PDC, were cultured in Matrigel-coated flasks prepared with a working solution of 1X Ham's F-12 nutrient mix, without supplementation (Thermo Fisher Scientific, cat. 11765054), 100 U/mL penicillin-streptomycin (Thermo Fisher Scientific, cat. 15140122), and 2.5% Matrigel (Corning Inc., Corning, NY, cat. 354248) for the first three passages. The two PDC lines 997537-175-T-J1-PDC and 415267-285-R-J2-PDC were cultured on uncoated flasks. The 857933-349-R-J2-PDC line was cultured in 6C/Colon 1B media containing advanced DMEM/F-12 (Thermo Fisher Scientific, cat. 12634028), 10 mM HEPES (Thermo Fisher Scientific, cat. 15630080), 1X GlutaMAX supplement (Thermo Fisher Scientific, cat. 35050061), 0.1 mg/mL primocin (InvivoGen, San Diego, CA, cat. ant-pm-2), 10% defined fetal bovine serum, heat inactivated (HyClone Laboratories Inc., Logan, UT, cat. SH30070.03HI), 50% L-WRN conditioned media (ATCC, cat. CRL-3276), 1.25 mM N-Acetyl-L-cysteine (Sigma-Aldrich, cat. A9165), 10 mM nicotinamide (Sigma-Aldrich, cat. N0636), 1X B-27 supplement (Thermo Fisher Scientific, cat. 17504044), 1X N-2 supplement (Thermo Fisher Scientific, cat. […]

[1] = second compound 0.0316 µM, first compound 0.0316 µM
[2] = second compound 0.0316 µM, first compound 0.1 µM
[3] = second compound 0.0316 µM, first compound 0.316 µM
[4] = second compound 0.0316 µM, first compound 1 µM
[5] = second compound 0.0316 µM, first compound 3.16 µM
[6] = second compound 0.0316 µM, first compound 10 µM
[7] = second compound 0.1 µM, first compound 0.0316 µM
[8] = second compound 0.1 µM, first compound 0.1 µM
[9] = second compound 0.1 µM, first compound 0.316 µM
[10] = second compound 0.1 µM, first compound 1 µM
[11] = second compound 0.1 µM, first compound 3.16 µM
[12] = second compound 0.1 µM, first compound 10 µM
[13] = second compound 0.316 µM, first compound 0.0316 µM
[14] = second compound 0.316 µM, first compound 0.1 µM
[15] = second compound 0.316 µM, first compound 0.316 µM
[16] = second compound 0.316 µM, first compound 1 µM
[17] = second compound 0.316 µM, first compound 3.16 µM
[18] = second compound 0.316 µM, first compound 10 µM
[19] = second compound 1 µM, first compound 0.0316 µM
[20] = second compound 1 µM, first compound 0.1 µM
[21] = second compound 1 µM, first compound 0.316 µM
[22] = second compound 1 µM, first compound 1 µM
[23] = second compound 1 µM, first compound 3.16 µM
[24] = second compound 1 µM, first compound 10 µM
[25] = second compound 3.16 µM, first compound 0.0316 µM
[26] = second compound 3.16 µM, first compound 0.1 µM
[27] = second compound 3.16 µM, first compound 0.316 µM
[28] = second compound 3.16 µM, first compound 1 µM
[29] = second compound 3.16 µM, first compound 3.16 µM
[30] = second compound 3.16 µM, first compound 10 µM
[31] = second compound 10 µM, first compound 0.0316 µM
[32] = second compound 10 µM, first compound 0.1 µM
[33] = second compound 10 µM, first compound 0.316 µM
[34] = second compound 10 µM, first compound 1 µM
[35] = second compound 10 µM, first compound 3.16 µM
[36] = second compound 10 µM, first compound 10 µM
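Further: spheroids exposed to compounds for seven days.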
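Wherever viability, T/C is given: 100% = DMSO vehicle control viability.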

CCc1cc2c(N3CCc4c(cc(Cn5ccnc5)cc4-c4cn(C)nc4C(F)(F)F)C3=O)cc(C)nc2c(OC)n1 + Cc1cccc(N(C)C(=O)C2C(O)CCN2c2nc(C)cc(C(F)(F)F)c2C#N)c1
pIC50 (second compound 0.0316 µM): < 5.00
pIC50 (second compound 0.1 µM): < 5.00
pIC50 (second compound 0.316 µM): < 5.00
pIC50 (second compound 1 µM): < 5.00
pIC50 (second compound 3.16 µM): < 5.00
pIC50 (second compound 10 µM): < 5.00
viability, T/C [1]: 102%
viability, T/C [2]: 99.6%
viability, T/C [3]: 104%
viability, T/C [4]: 108%
viability, T/C [5]: 108%
viability, T/C [6]: 98.3%
viability, T/C [7]: 110%
viability, T/C [8]: 100%
viability, T/C [9]: 102%
viability, T/C [10]: 107%
viability, T/C [11]: 103%
viability, T/C [12]: 103%
viability, T/C [13]: 108%
viability, T/C [14]: 105%
viability, T/C [15]: 93.2%
viability, T/C [16]: 105%
viability, T/C [17]: 110%
viability, T/C [18]: 95.7%
viability, T/C [19]: 117%
viability, T/C [20]: 95.6%
viability, T/C [21]: 88.3%
viability, T/C [22]: 95.4%
viability, T/C [23]: 108%
viability, T/C [24]: 85.2%
viability, T/C [25]: 99.8%
viability, T/C [26]: 92.2%
viability, T/C [27]: 91.8%
viability, T/C [28]: 106%
viability, T/C [29]: 97.5%
viability, T/C [30]: 108%
viability, T/C [31]: 102%
viability, T/C [32]: 98.7%
viability, T/C [33]: 87.8%
viability, T/C [34]: 95.4%
viability, T/C [35]: 93.9%
viability, T/C [36]: 89.7%

COc1ccc([C@@H](O)c2cc(-c3ncnc4cc(N5CCOCC5)ccc34)c(F)cc2Cl)nn1 + Cc1cccc(N(C)C(=O)C2C(O)CCN2c2nc(C)cc(C(F)(F)F)c2C#N)c1
pIC50 (second compound 0.0316 µM): < 5.00
pIC50 (second compound 0.1 µM): < 5.00
pIC50 (second compound 0.316 µM): < 5.00
pIC50 (second compound 1 µM): < 5.00
pIC50 (second compound 3.16 µM): 5.03
pIC50 (second compound 10 µM): < 5.00
viability, T/C [1]: 98.6%
viability, T/C [2]: 94.8%
viability, T/C [3]: 101%
viability, T/C [4]: 99%
viability, T/C [5]: 77.5%
viability, T/C [6]: 57.6%
viability, T/C [7]: 103%
viability, T/C [8]: 103%
viability, T/C [9]: 97.4%
viability, T/C [10]: 91.8%
viability, T/C [11]: 85.2%
viability, T/C [12]: 57.3%
viability, T/C [13]: 109%
viability, T/C [14]: 104%
viability, T/C [15]: 103%
viability, T/C [16]: 92.7%
viability, T/C [17]: 78.5%
viability, T/C [18]: 53.6%
viability, T/C [19]: 100%
viability, T/C [20]: 93.8%
viability, T/C [21]: 94%
viability, T/C [22]: 92.1%
viability, T/C [23]: 84.1%
viability, T/C [24]: 52.3%
viability, T/C [25]: 92%
viability, T/C [26]: 101%
viability, T/C [27]: 95.9%
viability, T/C [28]: 87.4%
viability, T/C [29]: 74.5%
viability, T/C [30]: 48.1%
viability, T/C [31]: 97.2%
viability, T/C [32]: 79.7%
viability, T/C [33]: 83.8%
viability, T/C [34]: 78.9%
viability, T/C [35]: 71.6%
viability, T/C [36]: 51%
